Key:
[1] = system: GDF8 signaling (p-SMAD-3 Ser423/425); assay: AlphaScreen SureFire SMAD3 (p-Ser423/425) assay, GDF8-stimulated; format: cell-based; conditions: inhibition of GDF8 signaling, pSMAD, MPC11; read-out: GDF8 (GDF pSMAD (MPC11))
[2] = system: TGF-β signaling (p-SMAD-3 Ser423/425); assay: AlphaScreen SureFire SMAD3 (p-Ser423/425) assay, TGF-β-stimulated; format: cell-based; conditions: inhibition of TGF-β signaling, pSMAD, MPC-11

IC50 [1]: 25.6 nM | IC50 [2]: 160 nM
SMILES: COc1ccc(-c2nc(N)sc2-c2ccc3[nH]ncc3c2)cc1 [Compound 157, 5-(1H-indazol-5-yl)-4-(4-methoxyphenyl)thiazol-2-amine]

— patent US11352360B2, “TGF-beta inhibitors” (Rigel Pharmaceuticals, Inc., priority 2015, dated 2022)
